Consider 5 substances from patent US6855329B1, “Surface coating spatially controlled patterns” (Massachusetts Institute of Technology, priority 1998, dated 2005).

For series [1] the following is noted: cited from earlier work.
Series [2] concerns Bovine aortic endothelial cells (BAECs). Particulars: 48hr. The procedure:
(§1) A patterned polymer surface is prepared as described in Example 1;
(§2) Bovine aortic endothelial cells (BAECs) were maintained in low glucose Dulbecco's modifed Eagle's medium (DMEM) supplemented with 10% fetal bovine serum, 0.5% penicillin, 0.5% streptomycin and 1% L-glutamine in a humidified incubator at 37° C. and 5% CO2. Cells were passaged by trypsinisation before reaching confluence, usually every fifth day. Fresh media were added every other day. PC12 cells (ATCC CRL 1721) were grown in suspension culture in F-12K media supplemented with 15% horse serum, 2.5% fetal bovein serum, 0.5% penicillin, 0.5% streptomycin and 1% L-glutamine in a humidified incubator at 37° C. and 5% CO2. Cells were passaged 1:5 every third day. All cell culture reagents were obtained from Sigma unless otherwise stated.
(§3) BAECs between passages 7 and 9 were removed from tissue culture flasks by trypsinisation, pelleted by centrifugation, resuspended, washed three times and diluted to the appropriate concentration in serum-free MDEM. PC12 cells were primed with culture medium containing 50 ng/ml 7S nerve growth factor (NGF) 48 h prior to the experiment. The cells were pelleted by centrifugation, washed three times with serum-free F-12K medium, passed through a 22-guage needle to obtain a single cell suspension, and diluted to the appropriate concentration with serum-free. F-12K medium supplemented with 50ng/ml 7S NGF. For both cell types, approximately 10,000 cells/cm^2 were added to each sample and the plates returned to the incubator for the duration of the experiment (48hr). At the end point of the experiment, the samples were washed gently with PBS to remove unattached cells and visualised with a Nikon Diaphot TMD inverted microscope equipped with a Hitachi HV-C20 high resolution CCD video camera using phase contrast objectives. Images were digitised using NIH Image (v1.61) image analysis software. In addition, some BAEC samples were fixed in 10% neutral buffered formalin for 10 min, washed with water, and stained with hematoxylin for visualisation.

The subject of series [3] is smooth muscle cells, fibroblasts or platelets. The conditions noted are these: binds to the integrin on human endothelial cells; cited from earlier work.
The subject of series [4] is PC12 cells. The conditions noted are these: NGF-primed cells, 48hr. The procedure: as §1, §2, §3

In the case of IKVAV (SEQ ID NO:2), the water solubility result in series [1] is “not significantly water soluble”.
For the substance biotin-G11 GRGDS (SEQ ID NO:18), the “cell adhesion to the 30 or 12 μm-wide lines” value in series [2] (30 or 12 μm-wide lines) was “little cell adhesion”. Further, in series [2] (70 and 50 μm width lines), the “cell coverage of the 70 and 50 μm width lines” value is on record as “Complete cell coverage”. Besides, the “adhesion and spreading of BAECs on functionalised lines” value in series [2] (serum-free medium, approximately 10,000 cells/cm^2, no adhesion to unfunctionalised areas between the lines) was “adhered and spread”.
Regarding CSRARKQAASIKVAVSADR, the water solubility result in series [1] is given as “water soluble”.
Turning to REDV (SEQ ID NO:4), in series [3], the “adhesion or spreading of smooth muscle cells, fibroblasts or platelets” value is given as “does not support adhesion or spreading”.
Turning to “biotin-G5CSRARKQAASIKVAVSADR (SEQ ID NO:19)”, the “neurite outgrowth of PC12 cells on the micropattern” value in series [4] (neurites restricted from crossing the line boundary) is on record as “Directionally controlled neurite outgrowth was stimulated”. Further, the “adherence of PC12 cells to functionalised lines” value in series [4] (serum-free F-12K with 50ng/ml 7S NGF, only a small degree of cell adhesion between the lines) is listed as “selective adherence”.
